Experimental data reported in patent publication US20240336573A1, “COMPOUND FOR THE TREATMENT AND PROPHYLAXIS OF INFECTIOUS DISEASES” (Eberhard Karls Universität Tübingen Medizinische Fakultät, priority 2021, published 2024).

What was measured:
luciferase = luciferase (Photinus pyralis, UniProt P08659); experiment: Luciferase interference deselection assay (D1); format: biochemical; settings: DRC format
Source text: Starting with approximately 400,000 compounds, a set of 3991 compounds was left for testing in dose response experiments. Due to acquisition of a lower assay window for part of the data obtained during the screening campaign of ELFSC17_02, the data-set was split into P1 and P2 for analysis in ActivityBase. For P1 the initially set criterion of Z-score ≥4 (˜4%) was used for selection of actives and for P2 this selection criterion was adjusted to effect ≥40% (Z-score ˜15). […] In order to reduce this total number of 4205 compounds to a maximum of 4000 compounds allowed to be ordered in serial dilutions for dose response experiments (i.e. 1% of 400,000), the criterion for P1 was changed to Z-score >4.3 gaining 3344 compounds. […] The confirmed actives of ELF program ELFSC17-02 were tested as serial dilutions in the primary assay and deselection assay to generate dose response curves (DRCs). The serial dilutions consisted of 7 equidistant concentration steps (20 μM to 27.4 nM) and were tested in the primary and in the deselection assay in duplo (n=2) in 1536-well format. […] For the luciferase interference deselection assay in DRC-format, luciferase was left out in the Max effect wells, mimicking a 100% effect situation and resulting in a decreased signal. Compounds showing a signal decrease larger than 5 times the standard deviation (Z-score >5) were identified as luciferase […]. […] The ActivityBase application (IDBS) was used to analyze the data and to calculate quality parameters like Z-prime and Signal to Background ratio (S/B). For all compounds the % effect was calculated for all seven concentrations. ActivityBase was also used to calculate the pEC50 and Hill Slope. […] For compounds where no curve was fitted but reached >50% effect at 20 μM the Fit_Max was locked at 100% effect. For compounds where no curve was fitted but reached 100% effect at 20 μM and descended to <50% at 27 nM the Fit_Min was locked at 0%. […] Based on the results of C2 and D1 a list of 383 compounds was created as the preliminary hits, which were evaluated with MST (01). […]

SurA = SurA (Escherichia coli, UniProt P0ABZ6); experiment: nanoDSF of QHL compounds (Tycho); format: binding, E. coli; set-up: key: An increase of the inflection points in the nanoDSF experiments is indicated by (+); a decrease by (−); no changes with (none); ambiguity with a question mark (?); settings: re-evaluation; 100 μM compound, 2 μM SurA, 40 mM HEPES pH 7.4
Sequence of SurA (P0ABZ6 21-428): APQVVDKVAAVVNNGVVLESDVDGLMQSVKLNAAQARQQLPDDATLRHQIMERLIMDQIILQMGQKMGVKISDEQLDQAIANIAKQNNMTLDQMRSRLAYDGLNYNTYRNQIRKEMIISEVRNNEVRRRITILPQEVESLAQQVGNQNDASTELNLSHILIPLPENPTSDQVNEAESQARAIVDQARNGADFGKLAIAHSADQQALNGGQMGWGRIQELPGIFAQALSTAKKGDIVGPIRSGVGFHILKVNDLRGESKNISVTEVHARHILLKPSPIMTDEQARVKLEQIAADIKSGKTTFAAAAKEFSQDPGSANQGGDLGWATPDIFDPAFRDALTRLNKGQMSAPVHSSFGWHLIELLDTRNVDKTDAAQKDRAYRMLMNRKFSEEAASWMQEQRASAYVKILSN
Procedure: Nano Differential Scanning Fluorimetry (nanoDSF) measurements of the QHL (qualified hit list) compounds provided by the ELF were performed on a Tycho system (NanoTemper).

HepG2 cells = experiment: Cytotoxicity assay (LDH release); format: cell-based; settings: 500 μM compound, 1 h at 37° C., some cells also say precipitate
Procedure: Cell cytotoxicity of shelf derivatives was evaluated monitoring the LDH release from HepG2 cells using the CytoTox 96@ Non-Radio Cytotoxicity Assay (Promega) according to the manufacturer's instructions. […] After incubation, 25 μl were transferred into a fresh 96-well flat clear bottom plate and mixed with 25 μl CytoTox 96@ Reagent. LDH release reactions were incubated 30 min at RT in the dark and 25 μl Stop Solution were added. LDH release was measured at 490 nm in a multiplate reader.

E. coli ATCC 25922 = experiment: Sensitizer MIC assay (vancomycin); format: cell-based; settings: compound concentration of 100 μM
Procedure: To test for the sensitizer properties of the compounds, the inventors then performed a sensitizer MIC assay. To this end, E. coli BW25113, E. coli JW2496-3, and E. coli ATCC 25922 inocula were prepared as described above. Each well of a 96-well plate was prefilled with a fixed compound concentration of 100 μM and a dilution series of Vancomycin ranging from […]. A sensitizing effect was defined as reduction of the MIC value of Vancomycin of the respective test strain.

Sequence of luciferase (P08659 whole entry): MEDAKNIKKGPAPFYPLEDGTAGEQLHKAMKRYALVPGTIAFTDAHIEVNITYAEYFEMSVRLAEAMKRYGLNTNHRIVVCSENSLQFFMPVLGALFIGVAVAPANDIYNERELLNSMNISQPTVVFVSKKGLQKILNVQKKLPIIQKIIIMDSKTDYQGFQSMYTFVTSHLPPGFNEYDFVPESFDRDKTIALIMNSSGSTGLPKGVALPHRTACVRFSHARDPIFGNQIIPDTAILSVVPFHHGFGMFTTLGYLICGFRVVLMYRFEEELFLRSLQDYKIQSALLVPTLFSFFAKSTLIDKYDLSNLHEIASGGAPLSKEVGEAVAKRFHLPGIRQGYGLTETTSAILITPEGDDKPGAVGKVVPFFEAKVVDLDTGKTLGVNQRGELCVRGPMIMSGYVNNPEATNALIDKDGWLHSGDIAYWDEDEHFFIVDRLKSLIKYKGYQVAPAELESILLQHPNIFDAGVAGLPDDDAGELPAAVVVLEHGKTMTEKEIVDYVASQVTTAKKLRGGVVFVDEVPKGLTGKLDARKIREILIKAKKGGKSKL

Compound	Deselection (D1) pIC50 (luciferase; listed as QHL-10)	IC50 (luciferase; read-out: Deselection (D1) pIC50 (converted)) [µM]	nanoDSF(Tycho) Ti#1 (SurA)	nanoDSF(Tycho) Ti#2 (SurA)	CytoTox (HepG2 cells)	MIC (reduction of vancomycin MIC) (E. coli ATCC 25922)	Deselection (D1) pIC50 (luciferase)
NC(=O)c1nc(Cc2ccc(OCC(=O)O)cc2)[nH]c1NC(=O)c1ccc(-c2ccccc2)cc1 [Compound 2a, 2-(4-((5-([1,1′-biphenyl]-4-carboxamido)-4-carbamoyl-1H-imidazol-2-yl)methyl)phenoxy)acetic acid]	5.16	6.92	?	+	50.23%	yes (reduction of the MIC for vancomycin of the E. coli ATCC 25922 strain below 256 mg/l at a compound concentration of 100 μM (yes/no))	–
CN(C)c1ccc(-c2nc3cc(NC(=O)Cn4cc5ccccc5n4)ccc3[nH]2)cc1 [QHL-24]	–	–	none	+	precipitate (7.87%)	yes (reduction of the MIC for vancomycin of the E. coli ATCC 25922 strain below 256 mg/l at a compound concentration of 100 μM (yes/no))	4.42
